Measured values taken from PubChem BioAssay (NCI).
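Exposure lasted 48 hours, with cells grown in 96-well plates and compounds tested at five concentrations. TGI: total growth inhibition.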

What was measured:
Assay in all cases: NCI tumour cell line growth inhibition, 48 h
HS 578T breast = tested on: HS 578T breast
DU-145 prostate = tested on: DU-145 prostate
OVCAR-5 ovarian = tested on: OVCAR-5 ovarian
SK-MEL-5 melanoma = tested on: SK-MEL-5 melanoma
ACHN renal = tested on: ACHN renal
SK-OV-3 ovarian = tested on: SK-OV-3 ovarian
K-562 leukemia = tested on: K-562 leukemia
MCF7 breast = tested on: MCF7 breast
SF-268 CNS = tested on: SF-268 CNS
OVCAR-3 ovarian = tested on: OVCAR-3 ovarian
SNB-19 CNS = tested on: SNB-19 CNS
MOLT-4 leukemia = tested on: MOLT-4 leukemia
MALME-3M melanoma = tested on: MALME-3M melanoma
786-0 renal = tested on: 786-0 renal
MDA-MB-435 = tested on: MDA-MB-435
NCI-H226 lung = tested on: NCI-H226 lung
M14 melanoma = tested on: M14 melanoma
NCI-H522 lung = tested on: NCI-H522 lung
SK-MEL-2 melanoma = tested on: SK-MEL-2 melanoma
NCI/ADR-RES ovarian = tested on: NCI/ADR-RES ovarian
PC-3 prostate = tested on: PC-3 prostate
UACC-62 melanoma = tested on: UACC-62 melanoma
BT-549 breast = tested on: BT-549 breast
A498 renal = tested on: A498 renal
HCC-2998 colon = tested on: HCC-2998 colon
T-47D breast = tested on: T-47D breast
NCI-H460 lung = tested on: NCI-H460 lung
UACC-257 melanoma = tested on: UACC-257 melanoma
IGROV1 ovarian = tested on: IGROV1 ovarian
HOP-62 NSCLC = tested on: HOP-62 NSCLC
HL-60(TB) leukemia = tested on: HL-60(TB) leukemia
KM12 colon = tested on: KM12 colon
COLO 205 colon = tested on: COLO 205 colon
SF-295 CNS = tested on: SF-295 CNS
A549 NSCLC = tested on: A549 NSCLC
EKVX NSCLC = tested on: EKVX NSCLC
HCT-116 colon = tested on: HCT-116 colon
SN12C renal = tested on: SN12C renal
RPMI-8226 leukemia = tested on: RPMI-8226 leukemia
SR leukemia = tested on: SR leukemia
OVCAR-4 ovarian = tested on: OVCAR-4 ovarian
UO-31 renal = tested on: UO-31 renal
SF-539 CNS = tested on: SF-539 CNS
CAKI-1 renal = tested on: CAKI-1 renal
CCRF-CEM leukemia = tested on: CCRF-CEM leukemia
HCT-15 colon = tested on: HCT-15 colon
LOX IMVI melanoma = tested on: LOX IMVI melanoma
HOP-92 NSCLC = tested on: HOP-92 NSCLC
TK-10 renal = tested on: TK-10 renal
HT29 colon = tested on: HT29 colon
MDA-MB-231 breast = tested on: MDA-MB-231 breast
SK-MEL-28 melanoma = tested on: SK-MEL-28 melanoma
NCI-H23 lung = tested on: NCI-H23 lung
U251 CNS = tested on: U251 CNS
OVCAR-8 ovarian = tested on: OVCAR-8 ovarian

## O=C(O)/C(=C/C(=O)c1ccc(Cl)cc1)NNc1ccc([N+](=O)[O-])cc1[N+](=O)[O-]
HS 578T breast
  TGI: 94.4 µM
DU-145 prostate
  TGI: > 100 µM
OVCAR-5 ovarian
  TGI: > 100 µM
SK-MEL-5 melanoma
  TGI: > 100 µM
ACHN renal
  TGI: > 100 µM
SK-OV-3 ovarian
  TGI: > 100 µM
K-562 leukemia
  TGI: > 100 µM
MCF7 breast
  TGI: > 100 µM
SF-268 CNS
  TGI: > 100 µM
OVCAR-3 ovarian
  TGI: 94.8 µM
SNB-19 CNS
  TGI: > 100 µM
MOLT-4 leukemia
  TGI: > 100 µM
MALME-3M melanoma
  TGI: > 100 µM
786-0 renal
  TGI: 53.4 µM
MDA-MB-435
  TGI: > 100 µM
NCI-H226 lung
  TGI: 69.3 µM
M14 melanoma
  TGI: > 100 µM
NCI-H522 lung
  TGI: 46 µM
SK-MEL-2 melanoma
  TGI: > 100 µM
NCI/ADR-RES ovarian
  TGI: > 100 µM
PC-3 prostate
  TGI: > 100 µM
UACC-62 melanoma
  TGI: > 100 µM
BT-549 breast
  TGI: 92.5 µM
A498 renal
  TGI: > 100 µM
HCC-2998 colon
  TGI: > 100 µM
T-47D breast
  TGI: > 100 µM
NCI-H460 lung
  TGI: > 100 µM
UACC-257 melanoma
  TGI: > 100 µM
IGROV1 ovarian
  TGI: > 100 µM
HOP-62 NSCLC
  TGI: 70 µM
HL-60(TB) leukemia
  TGI: > 100 µM
KM12 colon
  TGI: > 100 µM
COLO 205 colon
  TGI: > 100 µM
SF-295 CNS
  TGI: > 100 µM
A549 NSCLC
  TGI: > 100 µM
EKVX NSCLC
  TGI: > 100 µM
HCT-116 colon
  TGI: 36.3 µM
SN12C renal
  TGI: > 100 µM
RPMI-8226 leukemia
  TGI: 96.9 µM
SR leukemia
  TGI: > 100 µM
OVCAR-4 ovarian
  TGI: 42 µM
UO-31 renal
  TGI: 44.2 µM
SF-539 CNS
  TGI: > 100 µM
CAKI-1 renal
  TGI: 46 µM
CCRF-CEM leukemia
  TGI: 70 µM
HCT-15 colon
  TGI: > 100 µM
LOX IMVI melanoma
  TGI: > 100 µM
HOP-92 NSCLC
  TGI: 57.1 µM
TK-10 renal
  TGI: > 100 µM
HT29 colon
  TGI: > 100 µM
MDA-MB-231 breast
  TGI: > 100 µM
SK-MEL-28 melanoma
  TGI: > 100 µM
NCI-H23 lung
  TGI: > 100 µM
U251 CNS
  TGI: > 100 µM
OVCAR-8 ovarian
  TGI: > 100 µM
